Test results taken from US5066783A, “Antiviral peptides and means for treating herpes infections” (priority 1988, dated 1991).
Several values for one entry are separate records, joined by “and”; a condition that tells them apart may be missing. Identical values can stand only once. Like-named read-outs stand apart in the source and are kept apart here. Where a SMILES comes first, the peptide text is derived from it. Where no end group is shown, it is not given here. [ ]: non-standard residue; d: D form. The star is where a group is joined. Phe(4-NO2) = N[C@@H](Cc1ccc([N+](=O)[O-])cc1)C(=O)O; Phe(4-NH2) = Nc1ccc(C[C@H](N)C(=O)O)cc1; Desaminotyrosyl = O=C(CCc1ccc(O)cc1)*

Molecular target: T1, herpes simplex viral ribonucleotide reductase (Human herpesvirus 1, UniProt P08543)
T1 construct: endogenous in cells
T1 sequence (P08543 whole entry): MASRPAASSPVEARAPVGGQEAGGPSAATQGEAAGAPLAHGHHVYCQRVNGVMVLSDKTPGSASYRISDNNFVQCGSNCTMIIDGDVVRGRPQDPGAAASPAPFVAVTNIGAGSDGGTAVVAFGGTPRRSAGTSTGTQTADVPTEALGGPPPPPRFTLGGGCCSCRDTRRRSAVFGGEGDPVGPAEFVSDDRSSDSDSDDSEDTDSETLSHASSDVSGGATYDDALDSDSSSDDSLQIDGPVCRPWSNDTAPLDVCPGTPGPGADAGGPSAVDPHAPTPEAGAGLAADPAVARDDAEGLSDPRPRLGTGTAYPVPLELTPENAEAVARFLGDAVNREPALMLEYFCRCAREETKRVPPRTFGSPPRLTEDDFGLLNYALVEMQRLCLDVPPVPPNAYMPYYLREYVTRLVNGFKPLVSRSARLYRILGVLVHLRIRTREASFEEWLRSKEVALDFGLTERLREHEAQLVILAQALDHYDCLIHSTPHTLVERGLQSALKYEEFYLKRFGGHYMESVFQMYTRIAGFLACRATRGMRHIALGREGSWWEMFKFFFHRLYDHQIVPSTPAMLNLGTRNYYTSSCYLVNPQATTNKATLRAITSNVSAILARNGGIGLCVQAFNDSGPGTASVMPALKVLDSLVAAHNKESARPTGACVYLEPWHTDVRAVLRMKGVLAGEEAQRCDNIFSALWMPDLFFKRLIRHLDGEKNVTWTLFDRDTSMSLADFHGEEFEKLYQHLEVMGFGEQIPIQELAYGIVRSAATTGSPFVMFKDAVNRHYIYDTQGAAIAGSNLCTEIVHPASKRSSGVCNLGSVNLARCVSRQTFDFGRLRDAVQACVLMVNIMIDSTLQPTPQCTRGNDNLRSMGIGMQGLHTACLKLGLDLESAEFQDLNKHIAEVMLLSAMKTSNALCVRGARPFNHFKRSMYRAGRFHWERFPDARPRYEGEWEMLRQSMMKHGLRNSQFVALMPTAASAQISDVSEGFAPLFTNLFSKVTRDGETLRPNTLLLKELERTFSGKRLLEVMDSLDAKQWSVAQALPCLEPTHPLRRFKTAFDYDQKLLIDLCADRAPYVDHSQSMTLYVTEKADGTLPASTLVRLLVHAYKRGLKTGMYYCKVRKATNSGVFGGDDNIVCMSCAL
Assay: biochemical
Type: biochemical, herpes simplex virus

[1] = 75 μg enzyme preparation (21.6 units mg^-1), mean of four assays
[2] = read-out: IC50 (concentration producing 50% of the maximal inhibition of enzyme activity)
[3] = IC50 (concentration producing 50% of the maximal inhibition of enzyme activity)
[4] = read-out: IC50 (concentration producing 50% of the maximal inhibition of enzyme activity), 75 μg enzyme preparation (21.6 units mg^-1), mean of four assays

For `CC[C@H](C)[C@H](NC(=O)[C@H](CC(=O)O)NC(=O)[C@H](CC(N)=O)NC(=O)[C@@H](NC(=O)[C@@H](NC(=O)[C@H](C)NC(=O)CNC(=O)[C@H](C)NC(=O)[C@H](Cc1ccc(O)cc1)NC(=O)[C@@H](N)Cc1ccc([N+](=O)[O-])cc1)C(C)C)C(C)C)C(=O)O` [H--(4-NO2 -Phe)--Tyr--Ala--Gly--Ala--Val--Val--Asn--Asp--Ile--OH] (H-[Phe(4-NO2)]YAGAVVNDI-OH), the IC50 [1] was 6.8 µM.
With “Ac-YAGTIVNDL-OH [Ac--Tyr--Ala--Gly--Thr--Ile--Val--Asn--Asp--Leu--OH]” the IC50 was 4.9 µM.
`COc1ccc(C[C@H](N)C(=O)N[C@@H](C)C(=O)NCC(=O)N[C@@H](C)C(=O)N[C@H](C(=O)N[C@H](C(=O)N[C@@H](CC(N)=O)C(=O)N[C@@H](CC(=O)O)C(=O)N[C@@H](CC(C)C)C(=O)O)C(C)C)C(C)C)cc1` [H--Tyr(OMe)--Ala--Gly--Ala--Val--Val--Asn--Asp--Leu--OH] was tested, and the IC50 [2] was 88 µM.
Compound “Ac-Y(Ac)AGFVINDL [Ac--Tyr(OAc)--Ala--Gly--Phe--Val--Ile--Asn--Asp--Leu--OH]” has an IC50 [1] of 14 µM.
Compound “Ac-YSGTVINDL-OH [Ac--Tyr--Ser--Gly--Thr--Val--Ile--Asn--Asp--Leu--OH]” has an IC50 [3] of 1.9 µM.
“H-KYAGAVVNDL-OH [H--Lys--Tyr--Ala--Gly--Ala--Val--Val--Asn--Asp--Leu--OH]” gave an IC50 [4] of 68 µM.
In the case of “H-YAGTVINDL-OH [H--Tyr--Ala--Gly--Thr--Val--Ile--Asn--Asp--Leu--OH]”, the IC50 [1] is reported as 15 µM.
`CC(=O)N[C@@H](Cc1ccc(O)cc1)C(=O)N[C@H](C)C(=O)NCC(=O)N[C@@H](C)C(=O)N[C@H](C(=O)N[C@H](C(=O)N[C@@H](CC(N)=O)C(=O)N[C@@H](CC(=O)O)C(=O)N[C@@H](CC(C)C)C(=O)O)C(C)C)C(C)C` [Ac--Tyr--D--Ala--Gly--Ala--Val--Val--Asn--Asp-- Leu--OH] showed an IC50 [2] of 230 µM.
“Ac-YAGFVINDL-OH [Ac--Tyr--Ala--Gly--Phe--Val--Ile--Asn--Asp--Leu--OH]” gave an IC50 [1] of 4.2 µM.
Work on “Ac-YGAVVNDL-OH [Ac--Tyr--Gly--Ala--Val--Val--Asn--Asp--Leu--OH]” yielded an IC50 [2] of 150 µM.
“H-YAPAVINDL-OH [H--Tyr--Ala--Pro--Ala--Val--Ile--Asn--Asp--Leu--OH]” gave an IC50 of 37 µM.
“H-YAVVNDL-OH [H--Tyr--Ala--Val--Val--Asn--Asp--Leu--OH]” showed an IC50 [2] of 340 µM.
“Ac-YSVINDL-OH [Ac--Tyr--Ser--Val--Ile--Asn--Asp--Leu--OH]” was tested, and the IC50 was 77 µM.
Compound “H-YAGAVVNDI-OH [H--Tyr--Ala--Gly--Ala--Val--Val--Asn--Asp--Ile--OH]” has an IC50 of 110 µM.
Work on “H-YAGAVLDDL-OH [H--Tyr--Ala--Gly--Ala--Val--Leu--Asp--Asp--Leu--OH]” yielded an IC50 of 90 µM.
For `CC(=O)N[C@@H](Cc1ccc(O)cc1)C(=O)N[C@@H](C)C(=O)NCC(=O)N[C@@H](C)C(=O)N[C@H](C(=O)N[C@H](C(=O)N[C@@H](CC(N)=O)C(=O)N[C@@H](CC(=O)O)C(=O)N[C@@H](CC(C)C)C(N)=O)C(C)C)C(C)C` [Ac--Tyr--Ala--Gly--Ala--Val--Val--Asn--Asp--Leu--NH2], the IC50 [4] was 76 µM.
Work on “H-YVVNDL-OH [H--Tyr--Val--Val--Asn--Asp--Leu--OH]” yielded an IC50 of 81 µM.
`CC[C@H](C)[C@H](NC(=O)[C@@H](NC(=O)CCc1ccc(O)cc1)C(C)C)C(=O)N[C@@H](CC(N)=O)C(=O)N[C@@H](CC(=O)O)C(=O)N[C@@H](CC(C)C)C(=O)O` [desamino-Tyr--Val--Ile--Asn--Asp--Leu--OH] (Desaminotyrosyl-VINDL-OH) gave an IC50 of 17 µM.
In the case of “Ac-YAGTVIQDL-OH [Ac--Tyr--Ala--Gly--Thr--Val--Ile--Gln--Asp--Leu--OH]”, the IC50 is reported as 36.5 µM.
With “Ac-YAATVINDL-OH [Ac--Tyr--Ala--Ala--Thr--Val--Ile--Asn--Asp--Leu--OH]” the IC50 was 15 µM.
With `CC[C@H](C)[C@H](NC(=O)[C@H](CC(=O)O)NC(=O)[C@H](CC(N)=O)NC(=O)[C@@H](NC(=O)[C@@H](NC(=O)[C@H](C)NC(=O)CNC(=O)[C@H](C)NC(=O)[C@H](Cc1ccc(O)cc1)NC(=O)[C@@H](N)Cc1ccc(N)cc1)C(C)C)C(C)C)C(=O)O` [H--(4-NH2 -Phe)--Tyr--Ala--Gly--Ala--Val--Val--Asn--Asp--Ile--OH] (H-[Phe(4-NH2)]YAGAVVNDI-OH) the IC50 [1] was 15 µM.
With `CC(=O)N[C@@H](Cc1ccc(O)cc1)C(=O)N[C@@H](C)C(=O)NCC(=O)N[C@@H](C)C(=O)N[C@H](C(=O)N[C@H](C(=O)N[C@@H](CC(N)=O)C(=O)N[C@@H](CC(=O)O)C(=O)N[C@@H](CC(C)C)C(=O)O)C(C)C)C(C)C` [Ac--Tyr--Ala--Gly--Ala--Val--Val--Asn--Asp--Leu--OH] the IC50 [2] was 20 µM.
With “Ac-YAGTVINDL-OH [Ac--Tyr--Ala--Gly--Thr--Val--Ile--Asn--Asp--Leu--OH]” the IC50 [3] was 2 µM and 5.2 µM.
Compound `CC(=O)N[C@H](Cc1ccc(O)cc1)C(=O)N[C@@H](C)C(=O)NCC(=O)N[C@@H](C)C(=O)N[C@H](C(=O)N[C@H](C(=O)N[C@@H](CC(N)=O)C(=O)N[C@@H](CC(=O)O)C(=O)N[C@@H](CC(C)C)C(=O)O)C(C)C)C(C)C` [Ac--D--Tyr--Ala--Gly--Ala--Val--Val--Asn--Asp--Leu--OH] has an IC50 [2] of 165 µM.
For `CC[C@H](C)[C@H](NC(=O)[C@@H](NC(=O)[C@H](Cc1ccc(OC)cc1)NC(C)=O)C(C)C)C(=O)N[C@@H](CC(N)=O)C(=O)N[C@@H](CC(=O)O)C(=O)N[C@@H](CC(C)C)C(=O)O` [Ac--Tyr(OMe)--Val--Ile--Asn--Asp--Leu--OH] (Ac-Y(Me)VINDL-OH), the IC50 was 24 µM.
“Ac-FVINDL-OH [Ac--Phe--Val--Ile--Asn--Asp--Leu--OH]” gave an IC50 of 42 µM.
In the case of “Ac-YVVNDL-OH [Ac--Tyr--Val--Val--Asn--Asp--Leu--OH]”, the IC50 is reported as 31 µM.
Compound “H-YAGPVVNDL-OH [H--Tyr--Ala--Gly--Pro--Val--Val--Asn--Asp--Leu--OH]” has an IC50 [4] of 48 µM.
In the case of `COc1ccc(C[C@H](NC(C)=O)C(=O)N[C@@H](C)C(=O)NCC(=O)N[C@@H](C)C(=O)N[C@H](C(=O)N[C@H](C(=O)N[C@@H](CC(N)=O)C(=O)N[C@@H](CC(=O)O)C(=O)N[C@@H](CC(C)C)C(=O)O)C(C)C)C(C)C)cc1` [Ac--Tyr(OMe)--Ala--Gly--Ala--Val--Val--Asn--Asp--Leu--OH], the IC50 [4] is reported as 40 µM.
“Ac-YAGVVINDL-OH [Ac--Tyr--Ala--Gly--Val--Val--Ile--Asn--Asp--Leu--OH]” gave an IC50 [3] of 4.3 µM.
“Ac-YVINDL-OH [Ac--Tyr--Val--Ile--Asn--Asp--Leu--OH]” gave an IC50 of 27 µM.
“H-FAGAVVNDL-OH [H--Phe--Ala--Gly--Ala--Val--Val--Asn--Asp--Leu--OH]” showed an IC50 of 68 µM.
Work on `CC(C)C[C@H](NC(=O)[C@H](CC(=O)O)NC(=O)[C@H](CC(N)=O)NC(=O)[C@@H](NC(=O)[C@@H](NC(=O)[C@H](C)NC(=O)CNC(=O)[C@H](C)NC(=O)[C@H](Cc1ccc(O)cc1)NC(=O)CCCCCCCN)C(C)C)C(C)C)C(=O)O` [NH2 (CH2)7 CO--Tyr--Ala--Gly--Ala--Val--Val--Asn--Asp--Leu--OH] yielded an IC50 [1] of 12.3 µM.
In the case of “Ac-YAVVNDL-OH [Ac--Tyr--Ala--Val--Val--Asn--Asp--Leu--OH]”, the IC50 [4] is reported as 330 µM.
In the case of `CC(C)C[C@H](NC(=O)[C@H](CC(=O)O)NC(=O)[C@H](CC(N)=O)NC(=O)[C@@H](NC(=O)[C@@H](NC(=O)[C@H](C)NC(=O)CNC(=O)[C@H](C)NC(=O)[C@@H](N)Cc1ccc(O)cc1)C(C)C)C(C)C)C(N)=O` [H--Tyr--Ala--Gly--Ala--Val--Val--Asn--Asp--Leu--NH2], the IC50 [2] is reported as 190 µM.
In the case of “H-YSGAVVNDL-OH [H--Tyr--Ser--Gly--Ala--Val--Val--Asn--Asp--Leu--OH]”, the IC50 [1] is reported as 90 µM.
